Assay results: US10954193B2 (Vanderbilt University, priority 2013, dated 2021)

Target: recombinant Mcl-1 (residues 172-327) (Homo sapiens (Human), UniProt Q07820)
Experiment: Bak peptide binding assay, fluorescence polarization anisotropy competition (FITC-Bak), Mcl-1;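 note: displacement of labeled Bak peptide read by fluorescence anisotropy, 10-point threefold dilutions from 20 µM top dose in 5% DMSO, 90 min incubation at room temperature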
Conditions: Table 3, binned ranges; FITC-Bak peptide 10 nM, Mcl-1 14 nM; read-out: Ki for inhibition of Mcl-1
Method: Bak Peptide Binding Assay
Compound affinity was measured using a fluorescence polarization anisotropy competition assay. Anisotropy measurements were carried out in 384-well, black, flat-bottom plates (Greiner Bio-one, Monroe, N.C., USA). […] 10 nM FITC-Bak peptide and 14 nM recombinant Mcl-1 (residues 172-327) were added to assay buffer (3 mM dithiothreitol, 50 mM NaCl, 20 mM Tris, pH 7.5).
Compounds are diluted in DMSO in a 10-point, 3-fold serial dilution scheme. 2.5 uL compound is added to 47.5 uL of assay buffer containing FITC-Bak and protein, for a final DMSO concentration of 5% and a top concentration of 20 uM. […] The plate was mixed and incubated for 90 minutes at room temperature. Anisotropy is measured at excitation wavelength 480 nm and emission wavelength 535 nm using an EnVision Multi-label plate reader (PerkinElmer, Wellesley, Mass., USA).

Sequence of recombinant Mcl-1 (residues 172-327) (Q07820 172-327): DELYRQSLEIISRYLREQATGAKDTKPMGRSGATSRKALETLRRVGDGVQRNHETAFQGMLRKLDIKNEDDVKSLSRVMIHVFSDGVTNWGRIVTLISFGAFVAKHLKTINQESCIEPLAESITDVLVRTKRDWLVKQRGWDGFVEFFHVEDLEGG

Row | Ki [nM] | Compound
1 | 101 to 299 | Cc1cc(OCCCc2c(C)n(CC(=O)O)c3c(-c4ccnn4C)cccc23)cc(C)c1Cl [Example 64, 2-(3-(3-(4-chloro-3,5-dimethylphenoxy)propyl)-2-methyl-7-(1-methyl-1H-pyrazol-5-yl)-1H-indol-1-yl)acetic acid]
2 | 101 to 299 | Cc1cc(OCCCc2c(C)n(CC(=O)O)c3c(-c4c(C)noc4C)cccc23)cc(C)c1Cl [Example 66, 2-(3-(3-(4-chloro-3,5-dimethylphenoxy)propyl)-7-(3,5-dimethylisoxazol-4-yl)-2-methyl-1H-indol-1-yl)acetic acid]
3 | 101 to 299 | Cc1cnccc1-c1cccc2c(CCCOc3cc(C)c(Cl)c(C)c3)c(C)n(CC(=O)O)c12 [Example 67]
4 | 101 to 299 | Cc1cc(OCCCc2c(C)n(CC(=O)O)c3c(-c4cccn4C)cccc23)cc(C)c1Cl [Example 68, 2-(3-(3-(4-chloro-3,5-dimethylphenoxy)propyl)-2-methyl-7-(1-methyl-1H-pyrrol-2-yl)-1H-indol-1-yl)acetic acid]
5 | ≤ 100 | Cc1cnccc1-c1cccc2c(CCCOc3cc(C)c(Cl)c(C)c3)c(C)n(CCC(=O)O)c12 [Example 72, 3-(3-(3-(4-chloro-3,5-dimethylphenoxy)propyl)-2-methyl-7-(3-methylpyridin-4-yl)-1H-indol-1-yl)propanoic acid]
6 | ≤ 100 | Cc1cc(OCCCc2c(C)n(CCC(=O)O)c3c(-c4cccn4C)cccc23)cc(C)c1Cl [Example 73, 3-(3-(3-(4-chloro-3,5-dimethylphenoxy)propyl)-2-methyl-7-(1-methyl-1H-pyrrol-2-yl)-1H-indol-1-yl)propanoic acid]
7 | ≤ 100 | Cc1cc(OCCCc2c(C)n(CCC(=O)O)c3c(-c4cccnc4C)cccc23)cc(C)c1Cl [Example 75, 3-(3-(3-(4-chloro-3,5-dimethylphenoxy)propyl)-2-methyl-7-(2-methylpyridin-3-yl)-1H-indol-1-yl)propanoic acid]
8 | ≤ 100 | CCn1nc(C)c(-c2cccc3c(CCCOc4cc(C)c(Cl)c(C)c4)c(C)n(CCC(=O)O)c23)c1C [Example 77, 3-(3-(3-(4-chloro-3,5-dimethylphenoxy)propyl)-7-(1-ethyl-3,5-dimethyl-1H-pyrazol-4-yl)-2-methyl-1H-indol-1-yl)propanoic acid]
9 | ≤ 100 | Cc1cc(OCCCc2c(C)n(CCC(=O)O)c3c(-c4c(C)nn(CCN5CCOCC5)c4C)cccc23)cc(C)c1Cl [Example 79, 3-(3-(3-(4-chloro-3,5-dimethylphenoxy)propyl)-7-(3,5-dimethyl-1-(2-morpholinoethyl)-1H-pyrazol-4-yl)-2-methyl-1H-indol-1-yl)propanoic acid]
10 | ≤ 100 | Cc1cc(OCCCc2c(C)n(CCC(=O)O)c3c(-c4c(C)nn(CCN5CCCC5)c4C)cccc23)cc(C)c1Cl [Example 80, 3-(3-(3-(4-chloro-3,5-dimethylphenoxy)propyl)-7-(3,5-dimethyl-1-(2-(pyrrolidin-1-yl)ethyl)-1H-pyrazol-4-yl)-2-methyl-1H-indol-1-yl)propanoic acid]
11 | ≤ 100 | Cc1cc(OCCCc2c(C)n(CCC(=O)NS(C)(=O)=O)c3c(-c4ccnn4C)cccc23)cc(C)c1Cl [Example 81, 3-(3-(3-(4-chloro-3,5-dimethylphenoxy)propyl)-2-methyl-7-(1-methyl-1H-pyrazol-5-yl)-1H-indol-1-yl)-N-(methylsulfonyl)propanamide]
12 | ≤ 100 | Cc1ccncc1-c1cccc2c(CCCOc3cc(C)c(Cl)c(C)c3)c(C)n(CCC(=O)NS(C)(=O)=O)c12 [Example 82, 3-(3-(3-(4-chloro-3,5-dimethylphenoxy)propyl)-2-methyl-7-(4-methylpyridin-3-yl)-1H-indol-1-yl)-N-(methylsulfonyl)propanamide]
13 | ≤ 100 | Cc1cc(OCCCc2c(C)n(CCC(=O)NS(C)(=O)=O)c3c(-c4cccn4C)cccc23)cc(C)c1Cl [Example 84, 3-(3-(3-(4-chloro-3,5-dimethylphenoxy)propyl)-2-methyl-7-(1-methyl-1H-pyrrol-2-yl)-1H-indol-1-yl)-N-(methylsulfonyl)propanamide]
14 | ≤ 100 | Cc1cc(OCCCc2c(C)n(CCC(=O)NS(C)(=O)=O)c3c(-c4c(C)nn(C)c4C)cccc23)cc(C)c1Cl [Example 85, 3-(3-(3-(4-chloro-3,5-dimethylphenoxy)propyl)-2-methyl-7-(1,3,5-trimethyl-1H-pyrazol-4-yl)-1H-indol-1-yl)-N-(methylsulfonyl)propanamide]
15 | ≤ 100 | CCn1nc(C)c(-c2cccc3c(CCCOc4cc(C)c(Cl)c(C)c4)c(C)n(CCC(=O)NS(C)(=O)=O)c23)c1C [Example 86, 3-(3-(3-(4-chloro-3,5-dimethylphenoxy)propyl)-7-(1-ethyl-3,5-dimethyl-1H-pyrazol-4-yl)-2-methyl-1H-indol-1-yl)-N-(methylsulfonyl)propanamide]
16 | ≤ 100 | CCn1nc(C)c(-c2cccc3c(CCCOc4cc(C)c(Cl)c(C)c4)c(C)n(CCC(=O)NS(=O)(=O)c4ccccc4)c23)c1C [Example 87, 3-(3-(3-(4-chloro-3,5-dimethylphenoxy)propyl)-7-(1-ethyl-3,5-dimethyl-1H-pyrazol-4-yl)-2-methyl-1H-indol-1-yl)-N-(phenylsulfonyl)propanamide]
17 | ≤ 100 | Cc1cc(OCCCc2c(C)n(CCC(=O)NS(=O)(=O)Cc3ccccc3)c3c(-c4c(C)nn(C)c4C)cccc23)cc(C)c1Cl [Example 88, N-(benzylsulfonyl)-3-(3-(3-(4-chloro-3,5-dimethylphenoxy)propyl)-2-methyl-7-(1,3,5-trimethyl-1H-pyrazol-4-yl)-1H-indol-1-yl)propanamide]
18 | ≤ 100 | Cc1cc(OCCCc2c(C)n(CCC(=O)NS(=O)(=O)c3ccc4ccccc4c3)c3c(-c4c(C)nn(C)c4C)cccc23)cc(C)c1Cl [Example 89, 3-(3-(3-(4-chloro-3,5-dimethylphenoxy)propyl)-2-methyl-7-(1,3,5-trimethyl-1H-pyrazol-4-yl)-1H-indol-1-yl)-N-(naphthalen-2-ylsulfonyl)propanamide]
19 | ≤ 100 | Cc1cc(OCCCc2c(C)n(CCC(=O)NS(=O)(=O)c3ccc(Oc4ccccc4)cc3)c3c(-c4c(C)nn(C)c4C)cccc23)cc(C)c1Cl [Example 90, 3-(3-(3-(4-chloro-3,5-dimethylphenoxy)propyl)-2-methyl-7-(1,3,5-trimethyl-1H-pyrazol-4-yl)-1H-indol-1-yl)-N-((4-phenoxyphenyl)sulfonyl)propanamide]
20 | ≤ 100 | Cc1cc(OCCCc2c(C)n(CCC(=O)NS(=O)(=O)c3ccccc3[N+](=O)[O-])c3c(-c4c(C)nn(C)c4C)cccc23)cc(C)c1Cl [Example 91, 3-(3-(3-(4-chloro-3,5-dimethylphenoxy)propyl)-2-methyl-7-(1,3,5-trimethyl-1H-pyrazol-4-yl)-1H-indol-1-yl)-N-((2-nitrophenyl)sulfonyl)propanamide]
21 | ≤ 100 | Cc1cc(OCCCc2c(C)n(CCC(=O)NS(=O)(=O)c3cccc([N+](=O)[O-])c3)c3c(-c4c(C)nn(C)c4C)cccc23)cc(C)c1Cl [Example 92, 3-(3-(3-(4-chloro-3,5-dimethylphenoxy)propyl)-2-methyl-7-(1,3,5-trimethyl-1H-pyrazol-4-yl)-1H-indol-1-yl)-N-((3-nitrophenyl)sulfonyl)propanamide]
22 | ≤ 100 | Cc1cc(OCCCc2c(C)n(CCC(=O)NS(=O)(=O)c3ccc([N+](=O)[O-])cc3)c3c(-c4c(C)nn(C)c4C)cccc23)cc(C)c1Cl [Example 93, 3-(3-(3-(4-chloro-3,5-dimethylphenoxy)propyl)-2-methyl-7-(1,3,5-trimethyl-1H-pyrazol-4-yl)-1H-indol-1-yl)-N-((4-nitrophenyl)sulfonyl)propanamide]
23 | ≤ 100 | Cc1cc(OCCCc2c(C)n(CCC(=O)NS(=O)(=O)c3ccccn3)c3c(-c4c(C)nn(C)c4C)cccc23)cc(C)c1Cl [Example 94, 3-(3-(3-(4-chloro-3,5-dimethylphenoxy)propyl)-2-methyl-7-(1,3,5-trimethyl-1H-pyrazol-4-yl)-1H-indol-1-yl)-N-(pyridin-2-ylsulfonyl)propanamide]
24 | ≤ 100 | Cc1cc(OCCCc2c(C)n(CCC(=O)NS(=O)(=O)c3cccnc3)c3c(-c4c(C)nn(C)c4C)cccc23)cc(C)c1Cl [Example 95, 3-(3-(3-(4-chloro-3,5-dimethylphenoxy)propyl)-2-methyl-7-(1,3,5-trimethyl-1H-pyrazol-4-yl)-1H-indol-1-yl)-N-(pyridin-3-ylsulfonyl)propanamide]
25 | ≤ 100 | Cc1cc(OCCCc2c(C)n(CCC(=O)NS(=O)(=O)c3ccncc3)c3c(-c4c(C)nn(C)c4C)cccc23)cc(C)c1Cl [Example 96, 3-(3-(3-(4-chloro-3,5-dimethylphenoxy)propyl)-2-methyl-7-(1,3,5-trimethyl-1H-pyrazol-4-yl)-1H-indol-1-yl)-N-(pyridin-4-ylsulfonyl)propanamide]
26 | 1000 to 9990 | Cc1cc(OCCCc2c(C)n(Cc3ccccc3C(=O)O)c3c(-c4c(C)n[nH]c4C)cccc23)cc(C)c1Cl [Example 97, 2-((3-(3-(4-chloro-3,5-dimethylphenoxy)propyl)-7-(3,5-dimethyl-1H-pyrazol-4-yl)-2-methyl-1H-indol-1-yl)methyl)benzoic acid]
27 | ≤ 100 | Cc1cc(OCCCc2c(C)n(Cc3ccc(C(=O)O)cc3)c3c(-c4c(C)n[nH]c4C)cccc23)cc(C)c1Cl [Example 98, 4-((3-(3-(4-chloro-3,5-dimethylphenoxy)propyl)-7-(3,5-dimethyl-1H-pyrazol-4-yl)-2-methyl-1H-indol-1-yl)methyl)benzoic acid]
28 | ≤ 100 | Cc1cc(OCCCc2c(C)n(Cc3cccc(C(=O)O)c3)c3c(-c4c(C)nn(C)c4C)c(Cl)ccc23)cc(C)c1Cl [Example 102, 3-((6-chloro-3-(3-(4-chloro-3,5-dimethylphenoxy)propyl)-2-methyl-7-(1,3,5-trimethyl-1H-pyrazol-4-yl)-1H-indol-1-yl)methyl)benzoic acid]
29 | ≤ 100 | Cc1cc(OCCCc2c(C)n(Cc3ccc(CC(=O)O)cc3)c3c(-c4c(C)nn(C)c4C)c(Cl)ccc23)cc(C)c1Cl [Example 103, 2-(4-((6-chloro-3-(3-(4-chloro-3,5-dimethylphenoxy)propyl)-2-methyl-7-(1,3,5-trimethyl-1H-pyrazol-4-yl)-1H-indol-1-yl)methyl)phenyl)acetic acid]
